What was measured:
Assay type in all cases: biochemical
SHP1 = target: T1, SHP1 (Homo sapiens, UniProt P29350); assay: Tyrosine phosphatase selectivity (pNPP substrate), SHP1; conditions: for IC50: SHP1, pNPP substrate; for IC50PTP/IC50SHP2 SHP1: selectivity ratio SHP1 over SHP2
T1 construct: made in house; host or cells: E. coli
Experimental: (§1) This experiment evaluated the selectivity of the disclosed compounds against tyrosine phosphatases, including SHP1, HePTP, Laforin, LMWPTP, LYP, PTP1B, PRL2, SSU72, VHR, FAP1, STEP, CDC14A, CD45, MEG2, and PP5, all expressed and purified from E. coli.
(§2) Phosphatase activity was measured using p-nitrophenyl phosphate (pNPP) (Fisher Scientific) as the substrate in 50 mM 3,3-dimethylglutaric acid buffer (pH 7.0, containing 1 mM EDTA), with ionic strength adjusted to 0.15 M with NaCl. […] After 10-60 minutes, the reaction was quenched by adding 20 µL of 5 N NaOH. Wells without enzyme were used as controls for correction. The amount of the product, p-nitrophenol, was determined by measuring the absorbance at 405 nm using a Spectra MAX340 microplate spectrophotometer (Molecular Devices), with a molar extinction coefficient of 18000 M^-1cm^-1.
(§3) Data were analyzed using GraphPad Prism software. Dose-response curves were obtained by fitting data using the nonlinear S-curve regression Dose-response-inhibition equation, and IC50 values were calculated.

Laforin = target: T2, Laforin (Homo sapiens, UniProt O95278); assay: Tyrosine phosphatase selectivity (pNPP substrate), Laforin; conditions: for IC50: Laforin, pNPP substrate; for IC50PTP/IC50SHP2 Laforin: selectivity ratio Laforin over SHP2
T2 construct: made in house; host or cells: E. coli
T2 sequence (O95278 1-331): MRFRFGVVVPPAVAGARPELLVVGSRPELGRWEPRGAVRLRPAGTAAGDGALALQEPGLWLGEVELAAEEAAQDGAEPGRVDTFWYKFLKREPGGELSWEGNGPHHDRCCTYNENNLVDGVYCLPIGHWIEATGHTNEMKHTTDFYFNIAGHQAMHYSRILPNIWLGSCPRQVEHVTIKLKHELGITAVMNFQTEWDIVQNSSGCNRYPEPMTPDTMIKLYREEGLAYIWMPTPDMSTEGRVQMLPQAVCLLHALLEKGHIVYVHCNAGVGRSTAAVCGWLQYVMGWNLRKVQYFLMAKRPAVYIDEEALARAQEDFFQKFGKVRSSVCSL
Experimental: as §1, §2, §3

PTP1B = target: T3, PTP1B (Homo sapiens, UniProt P18031); assay: Tyrosine phosphatase selectivity (pNPP substrate), PTP1B; conditions: for IC50: PTP1B, pNPP substrate; for IC50PTP/IC50SHP2 PTP1B: selectivity ratio PTP1B over SHP2
T3 construct: made in house; host or cells: E. coli
T3 sequence (P18031 1-435): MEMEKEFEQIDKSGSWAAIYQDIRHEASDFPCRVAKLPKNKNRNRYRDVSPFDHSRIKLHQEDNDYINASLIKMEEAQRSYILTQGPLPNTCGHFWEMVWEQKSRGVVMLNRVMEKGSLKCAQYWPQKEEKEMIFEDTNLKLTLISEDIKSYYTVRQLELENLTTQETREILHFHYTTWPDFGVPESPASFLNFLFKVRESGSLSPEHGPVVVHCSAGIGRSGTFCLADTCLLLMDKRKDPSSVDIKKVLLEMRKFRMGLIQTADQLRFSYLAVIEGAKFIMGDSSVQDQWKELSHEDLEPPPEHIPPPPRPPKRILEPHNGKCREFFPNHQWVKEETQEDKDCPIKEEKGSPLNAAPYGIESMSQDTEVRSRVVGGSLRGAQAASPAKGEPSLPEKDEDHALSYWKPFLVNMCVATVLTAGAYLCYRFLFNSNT
Experimental: as §1, §2, §3

PRL2 = target: T4, PRL2 (Homo sapiens, UniProt Q12974); assay: Tyrosine phosphatase selectivity (pNPP substrate), PRL2; conditions: for IC50: PRL2, pNPP substrate; for IC50PTP/IC50SHP2 PRL2: selectivity ratio PRL2 over SHP2
T4 construct: made in house; host or cells: E. coli
T4 sequence (Q12974 1-167): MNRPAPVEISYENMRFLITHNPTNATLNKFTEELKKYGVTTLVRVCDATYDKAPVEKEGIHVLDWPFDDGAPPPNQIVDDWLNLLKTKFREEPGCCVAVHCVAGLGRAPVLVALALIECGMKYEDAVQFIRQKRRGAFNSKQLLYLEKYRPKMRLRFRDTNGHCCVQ
Experimental: as §1, §2, §3

SSU72 = target: T5, SSU72 (Homo sapiens, UniProt Q9NP77); assay: Tyrosine phosphatase selectivity (pNPP substrate), SSU72; conditions: for IC50: SSU72, pNPP substrate; for IC50PTP/IC50SHP2 SSU72: selectivity ratio SSU72 over SHP2
T5 construct: made in house; host or cells: E. coli
T5 sequence (Q9NP77 1-194): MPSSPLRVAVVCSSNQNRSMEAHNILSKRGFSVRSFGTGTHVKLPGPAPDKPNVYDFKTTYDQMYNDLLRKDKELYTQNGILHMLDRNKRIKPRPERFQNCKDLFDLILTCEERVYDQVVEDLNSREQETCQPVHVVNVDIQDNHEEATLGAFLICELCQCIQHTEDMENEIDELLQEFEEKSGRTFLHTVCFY
Experimental: as §1, §2, §3

FAP1 [1] = target: T6, FAP1 (Homo sapiens, UniProt Q12923); assay: Tyrosine phosphatase selectivity (pNPP substrate), FAP1; conditions: FAP1, pNPP substrate
T6 sequence (Q12923 2163-2477): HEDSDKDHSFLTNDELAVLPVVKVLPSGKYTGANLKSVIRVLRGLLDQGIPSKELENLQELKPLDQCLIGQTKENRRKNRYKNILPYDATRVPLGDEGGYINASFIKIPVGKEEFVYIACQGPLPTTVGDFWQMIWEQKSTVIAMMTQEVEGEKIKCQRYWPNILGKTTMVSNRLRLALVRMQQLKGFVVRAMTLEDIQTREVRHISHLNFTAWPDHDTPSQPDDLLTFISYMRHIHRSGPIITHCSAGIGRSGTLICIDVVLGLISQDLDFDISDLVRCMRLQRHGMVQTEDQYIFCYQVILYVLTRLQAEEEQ
Experimental: as §1, §2, §3

FAP1 [2] = assay: as above; conditions: selectivity ratio FAP1 over SHP2
Experimental: as §1, §2, §3

STEP = target: T7, STEP (Homo sapiens, UniProt P54829); assay: Tyrosine phosphatase selectivity (pNPP substrate), STEP; conditions: for IC50: STEP, pNPP substrate; for IC50PTP/IC50SHP2 STEP: selectivity ratio STEP over SHP2
T7 construct: made in house; host or cells: E. coli
T7 sequence (P54829 1-565): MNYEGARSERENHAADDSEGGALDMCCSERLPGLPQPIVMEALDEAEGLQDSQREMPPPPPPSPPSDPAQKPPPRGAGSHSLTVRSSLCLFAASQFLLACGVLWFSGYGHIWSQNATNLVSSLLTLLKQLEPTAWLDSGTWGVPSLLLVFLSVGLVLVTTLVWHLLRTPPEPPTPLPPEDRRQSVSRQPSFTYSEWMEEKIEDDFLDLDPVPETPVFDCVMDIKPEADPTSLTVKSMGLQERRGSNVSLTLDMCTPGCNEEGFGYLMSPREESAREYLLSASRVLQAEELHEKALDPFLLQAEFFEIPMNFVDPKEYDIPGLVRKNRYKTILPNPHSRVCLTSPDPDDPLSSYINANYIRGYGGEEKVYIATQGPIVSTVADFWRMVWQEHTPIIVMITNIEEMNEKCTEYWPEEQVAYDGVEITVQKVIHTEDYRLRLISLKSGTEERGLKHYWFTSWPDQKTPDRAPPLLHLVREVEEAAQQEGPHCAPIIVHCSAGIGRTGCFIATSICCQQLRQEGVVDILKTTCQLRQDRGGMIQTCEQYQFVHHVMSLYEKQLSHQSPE
Experimental: as §1, §2, §3

T1 sequence (P29350 whole entry): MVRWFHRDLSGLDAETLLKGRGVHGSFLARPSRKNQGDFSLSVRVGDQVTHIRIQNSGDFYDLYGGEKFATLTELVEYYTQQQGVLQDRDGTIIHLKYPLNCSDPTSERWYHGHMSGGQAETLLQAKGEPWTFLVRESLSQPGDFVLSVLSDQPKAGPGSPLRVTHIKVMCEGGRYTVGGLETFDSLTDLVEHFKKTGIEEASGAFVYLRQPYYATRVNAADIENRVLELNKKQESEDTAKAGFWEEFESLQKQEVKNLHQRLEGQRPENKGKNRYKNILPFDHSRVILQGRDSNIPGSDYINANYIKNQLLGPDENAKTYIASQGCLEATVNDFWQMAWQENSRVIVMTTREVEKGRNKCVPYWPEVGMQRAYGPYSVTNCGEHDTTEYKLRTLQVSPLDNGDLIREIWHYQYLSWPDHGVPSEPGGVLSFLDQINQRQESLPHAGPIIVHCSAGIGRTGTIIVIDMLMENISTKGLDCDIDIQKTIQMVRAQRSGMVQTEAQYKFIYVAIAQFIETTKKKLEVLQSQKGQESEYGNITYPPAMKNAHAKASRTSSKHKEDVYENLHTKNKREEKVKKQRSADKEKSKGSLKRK

SMILES | IC50 (SHP1) | IC50PTP/IC50SHP2 SHP1 (SHP1) | IC50 (Laforin) | IC50PTP/IC50SHP2 Laforin (Laforin) | IC50 (PTP1B) | IC50PTP/IC50SHP2 PTP1B (PTP1B) | IC50 (PRL2) | IC50PTP/IC50SHP2 PRL2 (PRL2) | IC50 (SSU72) | IC50PTP/IC50SHP2 SSU72 (SSU72) | IC50 (FAP1 [1]) | IC50PTP/IC50SHP2 FAP1 (FAP1 [2]) | IC50 (STEP) | IC50PTP/IC50SHP2 STEP (STEP)
O=C(Nc1ccc(-c2ccsc2)cc1)C(=O)Nc1ccc(-c2cc3cc(F)c(-c4nnn[nH]4)cc3n2C2CCC2)cc1 [Example 4] | 600 nM | 20.7 | > 20000 nM | 689.7 | 3200 nM | 110.3 | > 50000 nM | 1724.1 | < 3000 nM | 103.4 | 19500 nM | 672.4 | 4500 nM | 155.2
Cn1c(-c2cccc(NC(=O)C(=O)Nc3ccc(-c4ccsc4)cc3)c2)c(I)c2cc(C(=O)O)c(O)cc21 [Example 11a-1, reference compound] | 800 nM | 7.4 | 12200 nM | 112 | 2290 nM | 21.2 | – | – | 1300 nM | 12.0 | – | – | 4000 nM | 37.0
O=C(Nc1ccc(-c2cc3cc(F)c(-c4nnn[nH]4)cc3n2C2CCC2)cc1)C(=O)Nc1ccc(N2CCOCC2)cc1 [Example 47] | 120 nM | 1.9 | 610 nM | 9.6 | 370 nM | 5.8 | > 100000 nM | 1587 | 90 nM | 1.4 | 1530 nM | 24.2 | 770 nM | 12.2
O=C(Nc1ccc(-c2cc3cc(F)c(-c4nnn[nH]4)cc3n2C2CCC2)cc1)C(=O)Nc1ccc(N2CCC3(CCOC3)CC2)cc1 [Example 67] | 110 nM | 3.2 | 6210 nM | 182 | 390 nM | 11.4 | > 100000 nM | 2941 | 16 nM | 0.47 | 2340 nM | 68.8 | 6940 nM | 204.1
CC1(n2c(-c3ccc(NC(=O)C(=O)Nc4ccc(N5CCC6(CCOC6)CC5)cc4)cc3)cc3cc(F)c(-c4nnn[nH]4)cc32)CCC1 [Example 68] | 383 nM | 8.0 | > 25000 nM | 520.8 | 1500 nM | 31.3 | > 25000 nM | 520.8 | – | – | 560 nM | 11.7 | 8230 nM | 171.5

— patent publication EP4741383A1, “COMPOUND AND USE THEREOF AS ANTI-CANCER DRUG” (Tyligand Bioscience (Shanghai) Limited, priority 2023, dated 2025)
